What was measured:
[1] = Toxicity: LD50 in mice by the intraperitoneal route (log-probits method of Miller and Tainter); settings: mouse, in vivo
Procedure: The LD50 of the products was measured in mice by the intraperitoneal route according to the "log-probits" method of Miller and Tainter (Proc. Soc. Exptl. Biol. Med. 1944; 57, 261-264).

[2] = test system: reserpine-induced blepharospasm; test: Reserpine antagonism (blepharospasm); type: in vivo, Male, Swiss strain mice; settings: mice, IP, 1/10 of LD50, 30 min before reserpine 5 mg/kg IP; class symbols
Procedure: 3. Reserpine antagonism (blepharospasm) (Chen G., and Bohner B., (1961) J. Pharmacol. Exptl. Therap. 131, 179).
Reserpine administered to mice in a dosage of 5 mg/kg intraperitoneally subsequently causes the eyelids to drop more or less completely in the majority of the animals. The administration of certain products inhibits the blepharospasm produced by reserpine.
Male, Swiss strain mice are distributed into groups of 10 and each experiment comprises at least 3 groups:
a control group that receives only the solvent and reserpine
a group treated with a reference product: we chose imipramine
a treated group that receives the product being tested in a dosage of 1/10 of the LD50.
The products being tested are administered intraperitoneally 30 minutes before the intraperitoneal injection of reserpine in a dosage of 5 mg/kg, so as to study their activity as a function of time.
The degree of ptosis for each eye and for each animal is observed every 30 minutes for 4 to 5 hours, according to RUBIN's scoring system (RUBIN et al., J. Pharm. Exp. Therap. 1957, 120, 125-136). The activity of the product is determined by comparing the result obtained with the treated control group. The inhibition of blepharospasm is recorded from 0 to +++.

Q: Which LD50 ([1]; mice, IP) does the source give for COc1ccc(C=CC(O)CN2CCOCC2)cc1 (stereo not drawn) [Example 1, 1-(p-methoxyphenyl)-4-morpholino-1-buten-3-ol] here?
A: The LD50 was 500 mg/kg.

Q: And the “Blepharospasm (inhibition of reserpine-induced blepharospasm)” value [2]?
A: Its value is “+++ (inhibition >45%)”.

Q: What does the source list for C=CCOc1ccc(C=CC(O)CN2CCOCC2)cc1 (stereo not drawn) [Example 6]?
A: LD50 ([1]; ip): 300 mg/kg; Blepharospasm (inhibition of reserpine-induced blepharospasm) [2]: ++ (inhibition 26-45%)

Q: Which results are given for OC(C=Cc1ccc(F)cc1)CN1CCOCC1 (stereo not drawn) [Example 3]?
A: LD50 ([1]; ip): 800 mg/kg; Blepharospasm (inhibition of reserpine-induced blepharospasm) [2]: ++ (inhibition 26-45%)

Q: For C#CCOc1ccc(C=CC(O)CN2CCOCC2)cc1 (stereo not drawn) [Example 5], which LD50 ([1]; ip) is on record?
A: Its LD50 is 400 mg/kg.

Q: And the “Blepharospasm (inhibition of reserpine-induced blepharospasm)” value [2]?
A: Its value is “++ (inhibition 26-45%)”.

Q: For Oc1ccc(C=CC(O)CN2CCOCC2)cc1 (stereo not drawn) [Example 4], which LD50 ([1]; ip) is on record?
A: Its LD50 is 650 mg/kg.

Q: What about the “Blepharospasm (inhibition of reserpine-induced blepharospasm)” value [2] of the same molecule?
A: Its value is “++ (inhibition 26-45%)”.

Q: With OC(C=Cc1ccc(Cl)cc1)CN1CCOCC1 (stereo not drawn) [Example 2] as the molecule, how does the LD50 ([1]; ip) read?
A: The LD50 was 400 mg/kg.

Q: What about the “Blepharospasm (inhibition of reserpine-induced blepharospasm)” value [2] of the same molecule?
A: The value was “+++ (inhibition >45%)”.

— US4337252A, “1-Phenyl-4-morpholino-1-buten-3-01 derivatives, compositions and use” (Univablot, priority 1980, dated 1982)
